In PubChem BioAssay (NCI):
Where “and” joins values, the source holds several entries; their conditions need not be identical. Equal entries are not always repeated.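 Exposure lasted 48 hours, with cells grown in 96-well plates and compounds tested at five concentrations. GI50: concentration for 50% inhibition of growth. TGI: concentration producing complete growth inhibition.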

Legend:
P388/ADR leukemia = experiment: NCI tumour cell line growth inhibition, 48 h
P388 leukemia = experiment: NCI tumour cell line growth inhibition, 48 h

**Q.** How did the TGI (P388/ADR leukemia) turn out when `O=NN(CCCl)C(=O)NC1CCC(CC2CCC(NC(=O)N(CCCl)N=O)CC2)CC1` (stereo not given) was run?
**A.** Its TGI is 5030 nM.

**Q.** Which results are given for `CNCCN=c1ccc2c3c1c(O)c1c(O)ccc(=O)c1c3[nH]n2CCNCCO`?
**A.** GI50 (P388 leukemia): < 17.2 nM and 84.5 nM; TGI (P388 leukemia): 44.8 nM and 246 nM; GI50 (P388/ADR leukemia): 751 nM; TGI (P388/ADR leukemia): 16300 nM and 32900 nM
